Target: T1, COX I (Ovis aries, UniProt P05979)
T1 construct: The COX was purified form ram seminal vesicles; from tissue; host or cells: ram seminal vesicles
T1 sequence (P05979 25-600): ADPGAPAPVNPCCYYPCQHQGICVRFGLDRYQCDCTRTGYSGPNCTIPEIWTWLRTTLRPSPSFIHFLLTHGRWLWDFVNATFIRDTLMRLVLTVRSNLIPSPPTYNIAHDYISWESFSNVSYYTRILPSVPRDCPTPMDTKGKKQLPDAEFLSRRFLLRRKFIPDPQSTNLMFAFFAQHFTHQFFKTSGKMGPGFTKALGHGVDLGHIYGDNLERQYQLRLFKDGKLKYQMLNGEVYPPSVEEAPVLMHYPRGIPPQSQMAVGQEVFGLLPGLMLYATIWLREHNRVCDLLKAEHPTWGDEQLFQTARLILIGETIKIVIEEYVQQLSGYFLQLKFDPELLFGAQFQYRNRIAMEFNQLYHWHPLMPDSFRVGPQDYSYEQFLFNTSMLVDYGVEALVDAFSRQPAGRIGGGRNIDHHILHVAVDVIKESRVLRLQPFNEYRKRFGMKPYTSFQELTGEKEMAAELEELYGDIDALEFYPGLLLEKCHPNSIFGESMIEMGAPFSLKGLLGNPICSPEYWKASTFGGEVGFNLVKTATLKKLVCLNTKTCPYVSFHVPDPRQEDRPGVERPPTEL
Experiment: Cyclooxygenase (COX) inhibition, purified COX
Type: biochemical
Details: 100 μM test compound; purified COX from ram seminal vesicles, arachidonic acid 100 μM
Method: Compounds of this invention, as well as a positive control, sulindac sulfide were to determine whether they inhibited the production of cyclooxygenase (see Table 5 below).
COX catalyzes the formation of prostaglandins and thromboxane by the oxidative metabolism of arachidonic acid. The compounds of this invention were evaluated for inhibitory effects on purified COX. The COX was purified form ram seminal vesicles, as described by Boopathy, R. and Balasubramanian, J. 239:371-377, 1988. COX activity was assayed as described by Evans, A. T., et al., “Actions of cannabis constituents on enzymes of arachidonate metabolism anti-flammatory potential,” Biochem. Pharmacol., 36:2035-2037, 1987. Briefly, purified COX was incubated with arachidonic acid (100 μM) for 2.0 min at 37° C. in the presence or absence of test compounds. The assay was terminated buy the addition of TCA, and COX activity was determined by absorbance at 530 nm.

Row | COX I % Inhibition (100 μM) [%] | Structure (SMILES)
1 | <25 | COc1cc(/C=C2/C(C)=C(CC(=O)NCc3cccc(I)c3)c3cc(F)ccc32)cc(OC)c1OC [Example 2, (Z)-5-fluoro-2-methyl-1-(3,4,5-trimethoxybenzylidene)-3-(N-3-iodobenzyl)-indenylacetamide]
2 | <35 | COc1cc(/C=C2/C(C)=C(CC(=O)NCc3cccc(Cl)c3)c3cc(F)ccc32)cc(OC)c1OC [Example 3]
3 | <25 | COc1cc(/C=C2/C(C)=C(CC(=O)NCc3ccc(Cl)c(Cl)c3)c3cc(F)ccc32)cc(OC)c1OC [Example 5, (Z)-5-fluoro-2-methyl-1-(3,4,5-trimethoxybenzylidene)-3-(N-3,4-dichlorobenzyl)-indenylacetamide]
4 | <25 | COc1cc(/C=C2/C(C)=C(CC(=O)NCc3cccc(F)c3)c3cc(F)ccc32)cc(OC)c1OC [Example 7, (Z)-5-fluoro-2-methyl-1-(3,4,5-trimethoxybenzylidene)-3-(N-3-fluorobenzyl)-indenylacetamide]
5 | <25 | COc1cc(/C=C2/C(C)=C(CC(=O)NCc3ccc(F)c(F)c3)c3cc(F)ccc32)cc(OC)c1OC [Example 9, (Z)-5-fluoro-2-methyl-1-(3,4,5-trimethoxybenzylidene)-3-(N-3,4-difluorobenzyl)-indenylacetamide]
6 | <25 | COc1cc(/C=C2/C(C)=C(CC(=O)NCc3c(F)cccc3F)c3cc(F)ccc32)cc(OC)c1OC [Example 10, (Z)-5-fluoro-2-methyl-1-(3,4,5-trimethoxybenzylidene)-3-(N-2,6-difluorobenzyl)-indenylacetamide]
7 | <25 | COc1cc(/C=C2/C(C)=C(CC(=O)NCc3cc(F)cc(C(F)(F)F)c3)c3cc(F)ccc32)cc(OC)c1OC [Example 11, (Z)-5-fluoro-2-methyl-1-(3,4,5-trimethoxybenzylidene)-3-(N-3-fluoro-5-(trifluoromethyl)-benzyl)-indenylacetamide]
8 | <25 | COc1ccc(CNC(=O)CC2=C(C)/C(=C/c3cc(OC)c(OC)c(OC)c3)c3ccc(F)cc32)cc1 [Example 14, (Z)-5-fluoro-2-methyl-1-(3,4,5-trimethoxybenzylidene)-3-(N-4-methoxybenzyl)-indenylacetamide]
9 | <25 | COc1cc(CNC(=O)CC2=C(C)/C(=C/c3cc(OC)c(OC)c(OC)c3)c3ccc(F)cc32)cc(OC)c1 [Example 16, (Z)-5-fluoro-2-methyl-1-(3,4,5-trimethoxybenzylidene)-3-(N-3,5-dimethoxybenzyl)-indenylacetamide]
10 | <25 | COc1ccc(CNC(=O)CC2=C(C)/C(=C/c3cc(OC)c(OC)c(OC)c3)c3ccc(F)cc32)cc1OC [Example 17, (Z)-5-fluoro-2-methyl-1-(3,4,5-trimethoxybenzylidene)-3-(N-3,4-dimethoxybenzyl)-indenylacetamide]
11 | <25 | COc1cccc(CNC(=O)CC2=C(C)/C(=C/c3cc(OC)c(OC)c(OC)c3)c3ccc(F)cc32)c1OC [Example 18, (Z)-5 fluoro-2-methyl-1-(3,4,5-trimethoxybenzylidene)-3-(N-2,3-dimethoxybenzyl)-indenylacetamide]
12 | 36.5 | COc1cc(/C=C2/C(C)=C(CC(=O)NCc3ccc(S(N)(=O)=O)cc3)c3cc(F)ccc32)cc(OC)c1OC [Example 20, (Z)-5-fluoro-2-methyl-1-(3,4,5-trimethoxybenzylidene)-3-(N-4-sulfonamidobenzyl)-indenylacetamide]
13 | 36.5 | COc1cc(/C=C2/C(C)=C(CC(=O)NCc3ccc(N(C)C)cc3)c3cc(F)ccc32)cc(OC)c1OC [Example 21, (Z)-5-fluoro-2-methyl-1-(3,4,5-trimethoxybenzylidene)-3-(N-4-(dimethylamino)-benzyl)-indenylacetamide]
14 | <25 | CCN(CC)C(=O)CC1=C(C)/C(=C/c2cc(OC)c(OC)c(OC)c2)c2ccc(F)cc21 [Example 24, (Z)-5-fluoro-2-methyl-1-(3,4,5 trimethoxybenzylidene)-3-(N,N-diethyl)-indenylacetamide]
15 | 25 | COc1cc(/C=C2/C(C)=C(CC(=O)NC(C)(C)C)c3cc(F)ccc32)cc(OC)c1OC [Example 25, (Z)-5-fluoro-2-methyl-1-(3,4,5-trimethoxybenzylidene)-3-(N-tertbutyl)-indenylacetamide]
16 | 28.1 | COc1cc(/C=C2/C(C)=C(CC(=O)N(C3CCCCC3)C3CCCCC3)c3cc(F)ccc32)cc(OC)c1OC [Example 26, (Z)-5-fluoro-2-methyl-1-(3,4,5-trimethoxybenzylidene)-3-(N,N-dicyc1ohexyl)-indenylacetamide]
17 | <25 | COc1cc(/C=C2/C(C)=C(CC(=O)NCc3ccco3)c3cc(F)ccc32)cc(OC)c1OC [Example 29, (Z)-5-fluoro-2-methyl-1-(3,4,5-trimethoxybenzylidene)-3-(N-furfuryl)-indenylacetamide]
18 | <25 | COc1cc(/C=C2/C(C)=C(CC(=O)NCC3CC3)c3cc(F)ccc32)cc(OC)c1OC [Example 30, (Z)-5-fluoro-2-methyl-1-(3,4,5-trimethoxybenzylidene)-3-(N-cyclopropylmethyl)-indenylacetamide]
19 | <25 | COc1cc(/C=C2\C(C)=C(CC(=O)NCc3ccccc3)c3cc(F)ccc32)cc(OC)c1OC [Example 52, (E)-5-Fluoro-2-methyl-1-(3,4,5-trimethoxybenzylidene)-3-(N-benzyl)-indenylacetamide]

Row | Structure (SMILES) | COX I % Inhibition (100 μM) [%]
20 | COc1cc(/C=C2/C(C)=C(CC(=O)NCc3ccc(F)cc3F)c3cc(F)ccc32)cc(OC)c1OC [Example 6, (Z)-5-fluoro-2-methyl-1-(3,4,5-trimethoxybenzylidene)-3-(N-2,4-difluorobenzyl)-indenylacetamide] | <25
21 | COc1cc(/C=C2/C(C)=C(CC(=O)NCc3cccnc3)c3cc(F)ccc32)cc(OC)c1OC [Example 49, (Z)-5 fluoro-2-methyl-1-(3,4,5 trimetboxybenzylidene)-3-(N-3-pyridinyl)-idenylacetamide] | 25
22 | COc1cc(/C=C2/C(C)=C(CC(=O)NCc3ccncc3)c3cc(F)ccc32)cc(OC)c1OC [Example 50] | 29.2
